Experimental data published in publication PMC8832507 (Molecular cancer therapeutics, 2021).
Where a SMILES comes first, the peptide text is derived from it. [ ]: non-standard residue; d: D form. The star is where a group is joined. Dolaproine = CO[C@@H]([C@@H]1CCCN1)[C@@H](C)C(=O)O; Dil = CC[C@H](C)[C@H](NC)[C@@H](CC(=O)O)OC; X1 = C[C@@H](N*)[C@@H](O)c1ccccc1; NMeV = CN[C@H](C(=O)O)C(C)C

Tests used:
[1] = test system: HCC1954 (Ag+) and MDA-MB-468 (Ag−) co-culture; assay: Bystander co-culture assay; type: cell-based
HCC1954 cells = assay: Cytotoxicity; type: cell-based; settings: for IC50: read-out: Free payload IC50
MDA-MB-468 cells = assay: Cytotoxicity; type: cell-based; settings: for IC50: read-out: Free payload IC50, MDA-MB-468 cells
PAMPA permeability assay = settings: free payload
tumor spheroids = assay: Tumor spheroid pharmacodynamic marker; type: cell-based; settings: for Bystander penetration in spheroids by pH3 PD signal (in words): 25 nM AF680-ADC or AF680-trastuzumab, 24-48 hours; for Bystander penetration in spheroids by γH2A.X PD signal (in words): 24-72 hours

CC[C@@]1(O)C(=O)OCc2c1cc1n(c2=O)Cc2c-1nc1cc(F)c(C)c3c1c2[C@@H](NC(=O)CO)CC3 [DXd]
Ag− cell death in co-culture ([1]; any concentration higher than 250 pM): 100% | IC50 (HCC1954 cells): ~6.2 nM | Fold higher free payload sensitivity of MDA-MB-468 cells compared to HCC1954 (MDA-MB-468 cells): 2–3 fold | IC50 (MDA-MB-468 cells): ~2.3 nM

CC[C@H](C)[C@@H]([C@@H](CC(=O)N1CCC[C@H]1[C@H](OC)[C@@H](C)C(=O)N[C@H](C)[C@@H](O)c1ccccc1)OC)N(C)C(=O)[C@@H](NC(=O)[C@@H](NC)C(C)C)C(C)C [MMAE] (H-[NMeV]V[Dil][Dolaproine]-X1)
PAMPA permeability, fold higher than either Ahx-maytansine or Lys-SMCC-DM1 (PAMPA permeability assay): ~10 fold | Free payload IC50, fold more potent than either Ahx-maytansine or Lys-SMCC-DM1 (HCC1954 cells): over 100 fold | Bystander penetration in spheroids by pH3 PD signal (in words) (tumor spheroids): pH3 signal throughout the spheroid at 48 hours

CCc1c2c(nc3ccc(O)cc13)-c1cc3c(c(=O)n1C2)COC(=O)[C@]3(O)CC [SN-38]
IC50 (HCC1954 cells): ~1.8 nM | Fold higher free payload sensitivity of MDA-MB-468 cells compared to HCC1954 (MDA-MB-468 cells): 2–3 fold | IC50 (MDA-MB-468 cells): ~0.6 nM | Bystander penetration in spheroids by γH2A.X PD signal (in words) (tumor spheroids; 25 nM AF680-ADC): not readily apparent

CC[C@@]1(O)C(=O)OCc2c1cc1n(c2=O)Cc2c-1nc1cc(F)c(C)c3c1c2[C@@H](N)CC3 [exatecan]
Bystander efficiency in modified co-culture (in words) ([1]; fixed number of Ag− cells, increasing number of Ag+ cells, fixed ADC concentration): more efficient | PAMPA permeability, fold higher than DXd (PAMPA permeability assay): ~ 2 fold | PAMPA permeability, fold higher than SN-38 (PAMPA permeability assay): ~ 5 fold | Bystander penetration in spheroids by γH2A.X PD signal (in words) (tumor spheroids; 25 nM AF680-ADC): greatest PD signal at the spheroid center

Ahx-maytansine
Bystander penetration in spheroids by pH3 PD signal (in words) (tumor spheroids): detectable but localized bystander cell death

T-DM1
Ag+ cell death in co-culture (in words) ([1]; 1 nM ADC, 6 days): complete Ag+ cell death | Ag− cell bystander toxicity in co-culture (in words) ([1]; 1 nM ADC, 6 days, varying % Ag+ cells): no Ag− toxicity even at a 90% Ag+ cell percentage | Distance from spheroid edge of directly targeted cells showing pH3 signal (tumor spheroids; 25 nM AF680-ADC): ~ 75 µm | Bystander penetration in spheroids by pH3 PD signal (in words) (tumor spheroids): did not exhibit bystander killing even at 48 hours

calicheamicin D [CaliD]
Bystander penetration in spheroids by γH2A.X PD signal (in words) (tumor spheroids; 25 nM AF680-ADC): greatest bystander cell killing | PD response in spheroids with potency matched doses (in words) (tumor spheroids; T-CaliG 75nM, T-CaliD 1nM): more efficient at reaching cells in the spheroid center

calicheamicin G [CaliG]
Bystander penetration in spheroids by γH2A.X PD signal (in words) (tumor spheroids; 25 nM AF680-ADC): negligible
